Assay type in all cases: biochemical, hog
Assay [1] concerns glucoamylase/maltase (GM). The experiment in a line: Cleavage on incubation (24 hours) with GM. The conditions noted are these: 37° C. How it is done:
(§1) Sucrase/isomaltase (SI) and glucoamylase/maltase (GM) were isolated by papain digestion from hog small intestine mucosa and enriched by ammoniumsulfate precipitation. […] D) A study was first made as to what extent the inventive disaccharide derivatives and comparison substances, that is to say sucrose and maltose, were cleaved by SI or by GM during incubation for 24 hours. [table]

The target of assay [2] is T1, sucrase/isomaltase (SI) (Sus scrofa, UniProt P56729). Description: Cleavage on incubation (24 hours) with SI. As to conditions: 37° C. On the procedure: as §1
T1 sequence (P56729 with tags, fused parts or gaps): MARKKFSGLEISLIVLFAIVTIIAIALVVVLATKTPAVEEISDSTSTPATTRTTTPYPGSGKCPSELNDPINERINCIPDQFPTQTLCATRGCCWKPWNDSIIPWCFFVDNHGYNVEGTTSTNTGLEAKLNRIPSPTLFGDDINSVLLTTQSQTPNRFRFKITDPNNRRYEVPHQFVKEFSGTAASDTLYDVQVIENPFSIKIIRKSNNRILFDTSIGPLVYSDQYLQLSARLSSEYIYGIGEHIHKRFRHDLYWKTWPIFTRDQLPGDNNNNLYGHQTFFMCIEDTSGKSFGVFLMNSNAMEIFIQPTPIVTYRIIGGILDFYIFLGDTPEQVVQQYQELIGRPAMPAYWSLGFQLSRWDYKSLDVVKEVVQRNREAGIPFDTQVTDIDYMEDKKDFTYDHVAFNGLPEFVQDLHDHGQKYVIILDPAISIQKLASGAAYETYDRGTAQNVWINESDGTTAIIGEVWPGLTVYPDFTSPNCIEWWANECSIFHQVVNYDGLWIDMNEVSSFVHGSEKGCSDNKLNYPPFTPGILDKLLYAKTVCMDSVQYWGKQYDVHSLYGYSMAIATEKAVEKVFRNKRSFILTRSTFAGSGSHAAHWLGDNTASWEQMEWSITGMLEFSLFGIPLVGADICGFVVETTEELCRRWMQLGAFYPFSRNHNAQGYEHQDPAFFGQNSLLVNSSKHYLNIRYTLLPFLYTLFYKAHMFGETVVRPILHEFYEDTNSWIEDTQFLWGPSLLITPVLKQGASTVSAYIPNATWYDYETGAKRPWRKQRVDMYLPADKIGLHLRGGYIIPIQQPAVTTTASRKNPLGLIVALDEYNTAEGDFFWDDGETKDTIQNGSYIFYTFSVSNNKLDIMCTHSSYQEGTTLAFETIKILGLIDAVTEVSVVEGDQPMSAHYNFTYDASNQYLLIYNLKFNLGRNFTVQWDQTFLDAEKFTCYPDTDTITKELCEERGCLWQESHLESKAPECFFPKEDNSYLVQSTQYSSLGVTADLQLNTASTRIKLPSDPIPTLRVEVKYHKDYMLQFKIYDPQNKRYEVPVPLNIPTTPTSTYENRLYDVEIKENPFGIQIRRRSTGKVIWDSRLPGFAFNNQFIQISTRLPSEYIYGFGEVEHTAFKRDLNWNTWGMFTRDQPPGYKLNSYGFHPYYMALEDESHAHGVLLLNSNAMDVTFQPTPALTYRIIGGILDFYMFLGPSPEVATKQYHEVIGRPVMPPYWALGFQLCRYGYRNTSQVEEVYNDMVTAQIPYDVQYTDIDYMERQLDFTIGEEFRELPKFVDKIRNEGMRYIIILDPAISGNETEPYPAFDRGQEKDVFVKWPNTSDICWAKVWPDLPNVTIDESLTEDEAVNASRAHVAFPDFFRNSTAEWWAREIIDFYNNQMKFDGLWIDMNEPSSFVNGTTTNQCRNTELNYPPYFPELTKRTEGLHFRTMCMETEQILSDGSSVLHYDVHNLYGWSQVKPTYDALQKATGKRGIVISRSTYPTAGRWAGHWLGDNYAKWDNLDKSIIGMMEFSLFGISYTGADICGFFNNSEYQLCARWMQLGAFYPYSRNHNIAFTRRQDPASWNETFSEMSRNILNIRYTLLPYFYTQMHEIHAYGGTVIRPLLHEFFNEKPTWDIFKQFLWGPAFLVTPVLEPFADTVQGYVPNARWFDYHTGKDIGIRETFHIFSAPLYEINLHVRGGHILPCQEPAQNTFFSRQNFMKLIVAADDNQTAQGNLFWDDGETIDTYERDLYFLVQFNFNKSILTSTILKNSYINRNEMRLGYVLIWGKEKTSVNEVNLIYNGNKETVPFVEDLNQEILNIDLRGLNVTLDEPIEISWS
Assay [3] concerns glucoamylase/maltase (GM). The experiment in a line: Inhibition of GM-catalyzed hydrolysis of maltose (GM/maltose), coupled HK/G6PDH optical test. The conditions noted are these: for KM/Ki / inhibitor strength (in words) / Ki: GM/maltose; for Ki: secondary Lineweaver-Burk plots. On the procedure:
(§2) The maltase activity was studied using the substrate maltose. Sucrase/isomaltase (SI) and glucoamylase/maltase (GM) were isolated by papain digestion from hog small intestine mucosa and enriched by ammoniumsulfate precipitation. […] B) In the methods described hereinafter for determining the enzyme activity of sucrase/isomaltase and glucoamylase/maltase under the influence of the substances tested, the amount of glucose or fructose released was determined as measured parameter. This took place in an enzymatic optical test using hexokinase (HK) and glucose-6-phosphate dehydrogenase (G6PDH) as a coupled detection system (Beutler, H.-O.; in: Methods of Enzymatic Analysis; Bergmeyer, H. U.; Bergmeyer, […] edition; Vol. […] The measurement was made at 37° C. and a pH of 7.0. The table below reports the composition of the assays necessary for the individual tests. In individual tests, the semimicro assay was used, but this was reduced in some cases to a micro assay. […] C) Before the inhibitor strengths were determined, for each enzyme-substrate combination basic kinetics were established in which not only the Michaelis-Menten constant (KM [mmol/l]) but also the maximum velocity (Vmax [μmol/mLmin]) were determined. […] The level of the inhibitor concentrations used depended on the strength of the resulting inhibition. For each of the enzyme-substrate combinations, 3 to 4 sets of kinetics at different inhibitor concentrations were established. The inhibitor constants Ki and Kii were, unless stated otherwise, determined from secondary Lineweaver-Burk plots.

Assay [4] deals with T1, sucrase/isomaltase (SI). Description: Inhibition of SI-catalyzed hydrolysis of sucrose (SI/sucrose), coupled HK/G6PDH optical test. The text has this:
(§3) A) The activity of the SI enzyme complex was studied using three different substrates, that is to say sucrose, maltose and isomaltose.
(§4) Sucrase/isomaltase (SI) and glucoamylase/maltase (GM) were isolated by papain digestion from hog small intestine mucosa and enriched by ammoniumsulfate precipitation. The enzymes were separated into isolated sucrase/isomaltase (SI) and glucoamylase/maltase (GM) via an ion exchanger (DEAE cellulose), and a following fine fractionation using gel filtration on a Superdex 200 column from Pharmacia.
(§5) B) In the methods described hereinafter for determining the enzyme activity of sucrase/isomaltase and glucoamylase/maltase under the influence of the substances tested, the amount of glucose or fructose released was determined as measured parameter. This took place in an enzymatic optical test using hexokinase (HK) and glucose-6-phosphate dehydrogenase (G6PDH) as a coupled detection system (Beutler, H.-O.; in: Methods of Enzymatic Analysis; Bergmeyer, H. U.; Bergmeyer, J.; Graβl, M. (editors); 3rd edition; Vol. VI, 2–10). The measurement was made at 37° C. and a pH of 7.0.
(§6) The table below reports the composition of the assays necessary for the individual tests. In individual tests, the semimicro assay was used, but this was reduced in some cases to a micro assay.
(§7) C) Before the inhibitor strengths were determined, for each enzyme-substrate combination basic kinetics were established in which not only the Michaelis-Menten constant (KM [mmol/l]) but also the maximum velocity (Vmax [μmol/mLmin]) were determined. For the enzyme/substrate combination SI/sucrose, a substrate concentration of from 1.24 to 124 mmol/L was used, for the enzyme/substrate combination SI/maltose a substrate concentration of from 0.62 to 24.8 mmol/L was used, for the enzyme/substrate combination SI/isomaltose a substrate concentration of from 3.6 to 57.6 mmol/L was used and for the enzyme/substrate combination GM/maltose a substrate concentration of from 0.31 to 12.4 mmol/L was used in the assay.
(§8) The level of the inhibitor concentrations used depended on the strength of the resulting inhibition. For each of the enzyme-substrate combinations, 3 to 4 sets of kinetics at different inhibitor concentrations were established. The inhibitor constants Ki and Kii were, unless stated otherwise, determined from secondary Lineweaver-Burk plots.

For assay [5], the target named is T1, sucrase/isomaltase (SI). The experiment in a line: Inhibition of SI-catalyzed hydrolysis of isomaltose (SI/isomaltose), coupled HK/G6PDH optical test. Details: isolated by papain digestion from hog small intestine mucosa and enriched by ammoniumsulfate precipitation; from tissue; host or cells: hog small intestine mucosa; key to Type (of inhibition): K means competitive inhibition; NK means noncompetitive inhibition; UK means uncompetitive inhibition. As to conditions: for KM/Ki / Type (of inhibition) / inhibitor strength (in words) / Ki: SI/isomaltose; for Ki: secondary Lineweaver-Burk plots.
Excerpt: as §3
The isomaltase activity was studied using the substrate isomaltose.
as §4, §5, §6, §7, §8

Assay [6] addresses T1, sucrase/isomaltase (SI). The experiment in a line: Inhibition of SI-catalyzed hydrolysis of maltose (SI/maltose), coupled HK/G6PDH optical test.
Excerpt: as §2, with “A) The activity of the SI enzyme complex was studied using three different substrates, that is to say sucrose, maltose and isomaltose. The maltase” for “The maltase”

[7] abbreviates: cleavage product detected: glucose.
Where [8] appears, read: cleavage product detected: fructose.
[9] abbreviates: SI/sucrose, secondary Lineweaver-Burk plots, read-out: Ki.
[10] abbreviates: SI/sucrose, secondary Lineweaver-Burk plots, read-out: Kii.
The mark [11] stands for this setting: SI/maltose, secondary Lineweaver-Burk plots, read-out: Ki.
[12] abbreviates: SI/maltose, secondary Lineweaver-Burk plots, read-out: Kii.

Entries after “also recorded” stand apart in the source; their conditions may differ. Read-outs that look alike come from different tables or passages of the source.

For `OC[C@H]1O[C@H](O[C@H]2[C@H](O)[C@@H](O)C(O)O[C@@H]2CO)[C@H](O)[C@@H](O)[C@@H]1O` (mixture of isomers) [Maltose, reference compound], in assay [1] (setting [7]), the GM conversion rate came out at 95.7%. Further, on sucrase/isomaltase (SI) [2] (setting [7]), the SI conversion rate was 100%. For the same compound, the Km in assay [3] (GM/maltose basic kinetics, substrate, mean, 37° C., pH 7.0) worked out at 4.2 ± 1 mM. In assay [3] (GM/maltose basic kinetics, enzyme solution with maltase activity of 5 U/mL), the Vmax came out at 4.8 ± 0.7 U/mL.
On to `N[C@H]1[C@H](O)[C@@H](CO)O[C@@]1(CO)O[C@H]1O[C@H](CO)[C@@H](O)[C@H](O)[C@H]1O` [3′-aminosucrose], for which the GM conversion rate in assay [1] (setting [8]) came out at 0%. Also, the SI conversion rate on sucrase/isomaltase (SI) [2] (setting [8]) came out at 0%. In addition, the KM/Ki at sucrase/isomaltase (SI) [4] (SI/sucrose) was determined as 11530; on sucrase/isomaltase (SI) [5], 8.2; in assay [3] it was 3.1; on sucrase/isomaltase (SI) [6] (SI/maltose), 2113. For the same compound, the “inhibitor strength (in words)” value at sucrase/isomaltase (SI) [4] (SI/sucrose) is “to a high percentage even at very low concentrations; also recorded: strong to very strong”; at sucrase/isomaltase (SI) [5], “strong to very strong”; in assay [3], “to a high percentage even at very low concentrations; also recorded: strong to very strong”; on sucrase/isomaltase (SI) [6] (SI/maltose) it was “to a high percentage even at very low concentrations; also recorded: strong to very strong”. Also, the enzymatic activity entry at sucrase/isomaltase (SI) [4] (SI/sucrose, inhibitor concentration of 1 mmol/L) is recorded as “no longer measurable”; at sucrase/isomaltase (SI) [6] (SI/maltose, inhibitor concentration of 1 mmol/L), “no longer measurable”. Also, the Ki at sucrase/isomaltase (SI) [4] (SI/sucrose, with preincubation, Dixon evaluation, read-out: Ki) was found to be 0.0065 mM; on sucrase/isomaltase (SI) [4] (SI/sucrose, with preincubation, Henderson evaluation, read-out: Ki) it was 0.0063 mM; at sucrase/isomaltase (SI) [4] (SI/sucrose, without preincubation, Dixon evaluation, read-out: Ki) it was 0.0052 mM; at sucrase/isomaltase (SI) [4] (SI/sucrose, without preincubation, Henderson evaluation, read-out: Ki), 0.005 mM; in assay [3] (read-out: Ki) it was 1 mM; in assay [3] (read-out: Kii), 17 mM. The Ki was 0.0046 mM at sucrase/isomaltase (SI) [6] (SI/maltose, with preincubation, Dixon evaluation, read-out: Ki); 0.0046 mM on sucrase/isomaltase (SI) [6] (SI/maltose, with preincubation, Henderson evaluation, read-out: Ki); 0.0054 mM on sucrase/isomaltase (SI) [6] (SI/maltose, without preincubation, Dixon evaluation, read-out: Ki); 0.0052 mM on sucrase/isomaltase (SI) [6] (SI/maltose, without preincubation, Henderson evaluation, read-out: Ki). Also, the sucrose hydrolysis inhibited entry on sucrase/isomaltase (SI) [4] (concentration of 5 μmol/mL) is recorded as “about 30%”. The “Type (of inhibition)” value on sucrase/isomaltase (SI) [5] was “K”. Besides, on sucrase/isomaltase (SI) [6] (concentration of 5 μmol/mL), the maltose hydrolysis inhibited result was “about 50%”.
In turn, `O=C(O)C1OC(OCC2OC(O)(CO)C(O)C2O)C(O)C(O)C1O` (centres unmarked) [Pal-C6′S, palatinose-C6′-acid] gave a GM conversion rate in assay [1] (setting [8]) of 0.1%. At sucrase/isomaltase (SI) [2] (setting [8]), this compound gave an SI conversion rate of 0.4%. The KM/Ki is 8.4 on sucrase/isomaltase (SI) [4] (SI/sucrose), 3.7 at sucrase/isomaltase (SI) [5], 0.22 in assay [3] and 0.7 on sucrase/isomaltase (SI) [6] (SI/maltose). Moreover, the “inhibitor strength (in words)” value was “strong to very strong” on sucrase/isomaltase (SI) [4] (SI/sucrose), “strong to very strong” on sucrase/isomaltase (SI) [5], “inhibitory action” in assay [3] and “inhibitory action” on sucrase/isomaltase (SI) [6] (SI/maltose). In addition, the Ki amounted to 7 mM on sucrase/isomaltase (SI) [4] (setting [9]); 8 mM on sucrase/isomaltase (SI) [4] (setting [10]); 20 mM in assay [3] (read-out: Ki); 16 mM at sucrase/isomaltase (SI) [6] (setting [11]); 31 mM on sucrase/isomaltase (SI) [6] (setting [12]). Moreover, the “Type (of inhibition)” value at sucrase/isomaltase (SI) [5] was “K”.
On to `OC[C@H]1O[C@@](CO)(O[C@H]2O[C@H](CO)[C@@H](O)[C@H](O)[C@H]2O)[C@@H](O)[C@@H]1O` [Sucrose, reference compound], for which the SI conversion rate at sucrase/isomaltase (SI) [2] (setting [8]) was found to be 87%; on sucrase/isomaltase (SI) [2] (setting [7]), 85%.
Turning to `OC[C@H]1O[C@H](OC[C@H]2OC(O)[C@H](O)[C@@H](O)[C@@H]2O)[C@H](O)[C@@H](O)[C@@H]1O` (some centres unmarked) [isomaltose, reference compound], the Km at sucrase/isomaltase (SI) [5] (SI/isomaltose basic kinetics, substrate, mean, 37° C., pH 7.0) amounted to 73.9 ± 6.8 mM. The Vmax on sucrase/isomaltase (SI) [5] (SI/isomaltose basic kinetics, enzyme solution with maltase activity of 5 U/mL) turned out to be 3.07 ± 0.18 U/mL.
Compound sucrose-C6-acid [Suc-C6S] yielded a GM conversion rate in assay [1] (setting [7]) of 0%. Moreover, on sucrase/isomaltase (SI) [2] (setting [7]), the SI conversion rate came out at 2%. The values for the KM/Ki at sucrase/isomaltase (SI) [4] (SI/sucrose), on sucrase/isomaltase (SI) [5] and on sucrase/isomaltase (SI) [6] (SI/maltose) were 6.2, 1 and 0.26, respectively. The “inhibitor strength (in words)” value was “strong to very strong” at sucrase/isomaltase (SI) [4] (SI/sucrose), “strong to very strong” at sucrase/isomaltase (SI) [5] and “inhibitory action” at sucrase/isomaltase (SI) [6] (SI/maltose). The Ki on sucrase/isomaltase (SI) [4] (setting [9]) turned out to be 9 mM; at sucrase/isomaltase (SI) [4] (setting [10]) it was 9 mM; on sucrase/isomaltase (SI) [5] (read-out: Ki), 73 mM; on sucrase/isomaltase (SI) [5] (read-out: Kii), 3 mM; in assay [3] (read-out: Kii), 4 mM; at sucrase/isomaltase (SI) [6] (setting [11]), 43 mM. At sucrase/isomaltase (SI) [6] (setting [12]), the Ki was 5 mM. In addition, the “Type (of inhibition)” value on sucrase/isomaltase (SI) [5] is listed as “NK”.

The values are drawn from patent US7056900B2, “Disaccharide derivatives for treating hyperglycaemia” (Sudzucker Aktiengesellschaft Mannheim Ochsenfurt, priority 1997, dated 2006).
